The EC50 is the concentration that produces a half-maximal response. What is called Emax is the maximal effect, on the per cent scale that the assay sets.

Consider two molecules from patent US20230265151A1, “GIP/GLP1 CO-AGONIST COMPOUNDS” (priority 2020, published 2023).

Like-named read-outs stand apart in the source and are kept apart here.

Holding throughout (assay type): cell-based
One assay deals with hGLP-1R (Homo sapiens, UniProt P43220). The experiment in a line: Functional cAMP formation (HTRF) in HEK-293 clonal cells expressing hGLP-1R, 0.1% bovine casein, without or with 1.0% human serum albumin. Also on record: expressed in transfected cells. As to conditions: geometric mean, read-out: hGLP-1R EC50, nM (SEM, n). The essentials: (§1)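 Readings of the HTRF 665/620 nm ratio, which falls as cAMP rises, were converted to nM cAMP using a standard curve after 30 min peptide exposure at 37° C.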
Sequence of hGLP-1R (P43220 24-463): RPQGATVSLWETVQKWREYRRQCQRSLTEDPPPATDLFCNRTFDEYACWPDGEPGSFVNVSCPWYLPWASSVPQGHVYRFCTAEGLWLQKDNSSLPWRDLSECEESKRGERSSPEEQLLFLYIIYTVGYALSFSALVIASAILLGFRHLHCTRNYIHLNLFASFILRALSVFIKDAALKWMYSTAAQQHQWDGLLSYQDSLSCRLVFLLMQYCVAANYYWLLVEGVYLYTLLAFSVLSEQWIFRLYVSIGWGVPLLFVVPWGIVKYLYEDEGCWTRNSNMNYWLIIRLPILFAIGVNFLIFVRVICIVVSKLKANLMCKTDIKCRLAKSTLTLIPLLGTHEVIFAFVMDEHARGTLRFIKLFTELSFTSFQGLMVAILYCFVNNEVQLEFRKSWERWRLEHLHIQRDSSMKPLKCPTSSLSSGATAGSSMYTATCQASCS
(Cyclic AMP is a second messenger, typically raised through Gs and lowered through Gi signalling.)

The target in another assay is T1, hGCGR (Homo sapiens, UniProt P47871).
T1 construct: expressed in transfected cells
T1 sequence (P47871 26-477): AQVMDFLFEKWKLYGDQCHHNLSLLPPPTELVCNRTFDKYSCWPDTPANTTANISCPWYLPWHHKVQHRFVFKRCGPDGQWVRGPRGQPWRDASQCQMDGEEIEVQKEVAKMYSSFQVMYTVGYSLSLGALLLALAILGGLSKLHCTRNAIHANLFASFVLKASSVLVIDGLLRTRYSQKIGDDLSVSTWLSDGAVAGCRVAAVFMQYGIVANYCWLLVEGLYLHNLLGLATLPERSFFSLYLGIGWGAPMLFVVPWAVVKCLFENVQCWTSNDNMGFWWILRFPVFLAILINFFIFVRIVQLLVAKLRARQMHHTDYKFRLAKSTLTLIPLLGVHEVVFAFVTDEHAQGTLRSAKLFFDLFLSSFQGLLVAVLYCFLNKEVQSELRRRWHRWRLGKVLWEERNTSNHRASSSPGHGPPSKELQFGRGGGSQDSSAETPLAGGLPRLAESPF
The experiment in a line: Functional cAMP formation (HTRF) in HEK-293 clonal cells expressing hGCGR, 0.1% bovine casein, without or with 1.0% human serum albumin. As to conditions: geometric mean, read-out: hGCGR EC50, nM (SEM, n). The essentials:
as §1

A further assay concerns the target T2, hGIPR (Homo sapiens, UniProt P48546).
T2 construct: expressed in transfected cells
T2 sequence (P48546 22-466): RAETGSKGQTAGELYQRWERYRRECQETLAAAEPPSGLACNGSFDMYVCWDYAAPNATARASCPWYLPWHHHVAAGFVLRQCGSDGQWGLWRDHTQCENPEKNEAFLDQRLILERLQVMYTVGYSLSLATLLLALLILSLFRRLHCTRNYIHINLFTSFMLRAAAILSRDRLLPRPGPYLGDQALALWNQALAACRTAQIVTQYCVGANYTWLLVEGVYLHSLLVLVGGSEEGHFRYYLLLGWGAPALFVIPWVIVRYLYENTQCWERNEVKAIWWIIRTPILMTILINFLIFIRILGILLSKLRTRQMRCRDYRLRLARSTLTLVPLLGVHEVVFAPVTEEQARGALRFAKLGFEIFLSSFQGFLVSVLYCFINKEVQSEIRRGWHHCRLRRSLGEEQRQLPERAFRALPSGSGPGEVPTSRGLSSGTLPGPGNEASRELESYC
The experiment in a line: Functional cAMP formation (HTRF) in HEK-293 clonal cells expressing hGIPR, 0.1% bovine casein, without or with 1.0% human serum albumin. As to conditions: for Emax: read-out: hGIPR Emax, % ± SEM; for EC50: cAMP, 0.1% bovine casein (no human serum albumin), geometric mean, read-out: hGIPR EC50, nM (SEM, n). The essentials:
as §1

Setting [1] is: 0.1% bovine casein and 1.0% human serum albumin, 37° C.
Setting [2] is: cAMP, incubated at 37° C., 0.1% bovine casein (no human serum albumin).
[3] abbreviates: HEK293, 0.1% bovine casein and 1.0% human serum albumin, 37° C., percent of maximal response to GIP(1-42)NH2.
Setting [4] is: cAMP, 37° C., 0.1% bovine casein (no human serum albumin).

As to `CC[C@H](C)[C@H](NC(=O)[C@H](CC(C)C)NC(=O)[C@](C)(Cc1ccc(O)cc1)NC(=O)[C@@H](CCC(=O)O)NC(=O)[C@@H](NC(=O)[C@H](Cc1ccccc1)NC(=O)[C@H](CCC(=O)O)NC(=O)C(C)(C)NC(=O)[C@H](CCC(N)=O)NC(=O)[C@H](C)NC(=O)[C@H](CCCCNC(=O)COCCOCCNC(=O)COCCOCCNC(=O)CC[C@H](NC(=O)CCCCCCCCCCCCC(=O)O)C(=O)O)NC(=O)[C@H](CCCN)NC(=O)[C@H](CC(=O)O)NC(=O)[C@H](CC(C)C)NC(=O)[C@](C)(CC(C)C)NC(=O)[C@@H](NC(=O)[C@H](CO)NC(=O)[C@H](Cc1ccc(-c2ccccc2)cc1)NC(=O)[C@H](CC(=O)O)NC(=O)[C@H](CO)NC(=O)[C@@H](NC(=O)[C@](C)(Cc1ccccc1F)NC(=O)[C@@H](NC(=O)CNC(=O)[C@H](CCC(=O)O)NC(=O)C(C)(C)NC(=O)[C@@H](N)Cc1ccc(O)cc1)[C@@H](C)O)[C@@H](C)O)[C@@H](C)CC)[C@@H](C)CC)C(=O)N[C@@H](CCC(=O)O)C(=O)NCC(=O)NCC(=O)N[C@@H](CCCCNC(=O)COCCOCCNC(=O)COCCOCCNC(=O)CC[C@H](NC(=O)CCCCCCCCCCCCC(=O)O)C(=O)O)C(=O)N[C@@H](CO)C(=O)N[C@@H](CO)C(=O)NCC(=O)N[C@@H](C)C(=O)N1CCC[C@H]1C(=O)N1CCC[C@H]1C(=O)N1CCC[C@H]1C(=O)N[C@@H](CO)C(N)=O` [Example 55], the EC50 is 70.5 nM at hGLP-1R (setting [1]); 0.154 nM at hGLP-1R (setting [2]); > 9950 nM on hGCGR (setting [1]); > 9950 nM on hGCGR (setting [2]); 0.0207 nM on hGIPR (incubated at 37° C.). Besides, the Emax stood at 85.7 ± 0.885% on hGIPR (setting [3]) and 97.1 ± 2.16% at hGIPR (HEK293, percent of maximal response to GIP(1-42)NH2, 37° C., 0.1% bovine casein, arithmetic mean).
As for `CC[C@H](C)[C@H](NC(=O)[C@H](CC(C)C)NC(=O)[C@](C)(Cc1ccc(O)cc1)NC(=O)[C@@H](CCC(=O)O)NC(=O)[C@@H](NC(=O)[C@H](Cc1ccccc1)NC(=O)[C@H](CCCCNC(=O)COCCOCCNC(=O)COCCOCCNC(=O)CCCCCCCCCCCCC(=O)O)NC(=O)C(C)(C)NC(=O)[C@H](CCC(N)=O)NC(=O)[C@H](C)NC(=O)[C@H](CCCCNC(=O)COCCOCCNC(=O)COCCOCCNC(=O)CCCCCCCCCCCCC(=O)O)NC(=O)[C@H](CCCN)NC(=O)[C@H](CC(=O)O)NC(=O)[C@H](CC(C)C)NC(=O)[C@](C)(CC(C)C)NC(=O)[C@@H](NC(=O)[C@H](CO)NC(=O)[C@H](CCc1ccc(O)cc1)NC(=O)[C@H](CC(=O)O)NC(=O)[C@H](CO)NC(=O)[C@@H](NC(=O)[C@](C)(Cc1ccccc1F)NC(=O)[C@@H](NC(=O)CNC(=O)[C@H](CCC(=O)O)NC(=O)C(C)(C)NC(=O)[C@@H](N)Cc1ccc(O)cc1)[C@@H](C)O)[C@@H](C)O)[C@@H](C)CC)[C@@H](C)CC)C(=O)N[C@@H](CCC(=O)O)C(=O)NCC(=O)NCC(=O)N1CCC[C@H]1C(=O)N[C@@H](CO)C(=O)N[C@@H](CO)C(=O)NCC(=O)N[C@@H](C)C(=O)N1CCC[C@H]1C(=O)N1CCC[C@H]1C(=O)N1CCC[C@H]1C(=O)N[C@@H](CO)C(N)=O` [Example 272], the EC50 on hGLP-1R (setting [4]) was 0.388 nM; at hGCGR (setting [1]), > 9950 nM; on hGCGR (setting [4]), > 9950 nM; on hGIPR (37° C.), 0.0264 nM. In addition, the Emax at hGIPR (setting [3]) amounted to 81.2%; at hGIPR (HEK293, cAMP, 37° C., 0.1% bovine casein, percent of maximal response to GIP(1-42)NH2, arithmetic mean), 86%.
